{"source": "patent US20110251068A1", "about": "“PARASITIC PLANT CONTROL AGENT AND PARASITIC PLANT CONTROL METHOD” (OSAKA UNIVERSITY, priority 2008, published 2011)", "format_in_all_cases": "in vivo", "key": {"Orobanche minor [1]": {"system": "Orobanche minor", "experiment": "Germination rate of Orobanche minor seeds in the presence of enzyme inhibitors (GR24-induced)", "conditions": "for influence on germination of Orobanche minor: applied concurrently with GR24 0.1 mg/L, observed after four days (FIG. 8); for germination rate: Orobanche minor seeds, with GR24 0.1 mg/L, four days after application (FIG. 8)", "description": "(§1) Surfaces of seeds of Orobanche minor and Striga gesnerioides were sterilized by use of an aqueous solution containing 1% SDS and 5% sodium hypochlorite. Thereafter, the seeds were washed five times by use of sterile distilled water. Subsequently, the seeds were subjected to suction filtration and then naturally dried. GF/A glass filter paper of Φ 47 mm was spread on a laboratory dish, a GF/D glass disk of 1 cm was placed on the GF/A glass filter paper, and approximately 50 grains of the seeds were sown on the GF/D glass disk. 1.5 mL of sterile water was placed in the laboratory dish, and conditioning was carried out in a dark place at 23° C. for seven days. The GF/D glass disk was taken out of the laboratory dish on the eighth day after the beginning of conditioning and then placed on new GF/A glass filter paper. 1.5 mL of a germination stimulant GR24 (0.1 mg/L) was applied to the seeds of Orobanche minor, so as to induce its germination. A root extract of cowpea (CP) was applied to the seeds of Striga gesnerioides, so as to induce its germination. Note that concurrently with GR24 or the root extract of cowpea, nojirimycin, deoxynojirimycin, or deoxygalactonojirimycin was applied to the seeds. Note that nojirimycin is a typical β-glucosidase activity inhibitor, deoxynojirimycin is a typical α-glucosidase activity inhibitor, and deoxygalactonojirimycin is a typical galactosidase activity inhibitor. Whether or not germination occurred was observed by microscopic observation four days after application of GR24 or the root extract of cowpea (CP) and the like to the seeds."}, "Orobanche minor [2]": {"system": "Orobanche minor", "experiment": "Selective inhibition of germination: parasitic plant Orobanche minor", "conditions": "with GR24 0.1 mg/L, four days (FIG. 13)", "description": "(§2) It was examined whether or not germination inhibition caused by inhibition of gentianose metabolism was a selective phenomenon with respect to a parasitic plant. Note that nojirimycin was used as a typical gentianose metabolism inhibitor. Note also that Orobanche minor and Striga gesnerioides were used as typical parasitic plants and Trifolium pratense and Arabidopsis thaliana were used as typical non-parasitic plants. The following description specifically discusses how the examination was carried out. Surfaces of seeds of Orobanche minor, Striga gesnerioides, Arabidopsis thaliana, and Trifolium pratense were sterilized by use of an aqueous solution containing 1% SDS and 5% sodium hypochlorite. Thereafter, the seeds were washed five times by use of sterile distilled water. Subsequently, the seeds were subjected to suction filtration and then naturally dried. GF/A glass filter paper of Φ 47 mm was spread on a laboratory dish, a GF/D glass disk of 1 cm was placed on the GF/A glass filter paper, and approximately 50 grains of the seeds were sown on the GF/D glass disk. 1.5 mL of sterile water was placed in the laboratory dish, and conditioning was carried out in a dark place at 23° C. for seven days. The GF/D glass disk was taken out of the laboratory dish on the eighth day after the beginning of conditioning and then placed on new GF/A glass filter paper. […]"}, "Orobanche minor [3]": {"system": "Orobanche minor", "experiment": "Recovery of germination inhibition effect by addition of glucose", "conditions": "Orobanche minor seeds, GR24 0.1 mg/L, nojirimycin with glucose 10 mM, four days (FIG. 9)", "procedure": "The following description specifically discusses how the examination was carried out. Surfaces of seeds of Orobanche minor were sterilized by use of an aqueous solution containing 1% SDS and 5% sodium hypochlorite. Thereafter, the seeds were washed five times by use of sterile distilled water. Subsequently, the seeds were subjected to suction filtration and then naturally dried. GF/A glass filter paper of Φ 47 mm was spread on a laboratory dish, a GF/D glass disk of 1 cm was placed on the GF/A glass filter paper, and approximately 50 grains of the seeds were sown on the GF/D glass disk. 1.5 mL of sterile water was placed in the laboratory dish, and conditioning was carried out in a dark place at 23° C. for seven days. The GF/D glass disk was taken out of the laboratory dish on the eighth day after the beginning of conditioning and then placed on new GF/A glass filter paper. 1.5 mL of a germination stimulant GR24 (0.1 mg/L) was applied to the seeds, so as to induce its germination. Note that concurrently with GR24, nojirimycin or a mixture of nojirimycin and glucose (glucose concentration: 10 mM) was added to the seeds. Whether or not germination occurred was observed by microscopic observation four days after application of GR24 and the like to the seeds."}, "Striga gesnerioides [4]": {"system": "Striga gesnerioides", "experiment": "Germination rate of Striga gesnerioides seeds in the presence of nojirimycin (induced by root extract of cowpea)", "conditions": "for germination rate: Striga gesnerioides seeds, rate without nojirimycin taken as 100%, cowpea root extract, four days (FIG. 10)", "description": "as §1"}, "Striga gesnerioides [5]": {"system": "Striga gesnerioides", "experiment": "Selective inhibition of germination: parasitic plant Striga gesnerioides", "conditions": "with root extract of cowpea, four days (FIG. 13)", "description": "as §2"}, "Arabidopsis thaliana": {"system": "Arabidopsis thaliana", "experiment": "Selective inhibition of germination: non-parasitic plant Arabidopsis thaliana", "conditions": "only nojirimycin, no germination inducer, four days (FIG. 13)", "description": "as §2"}, "Trifolium pratense": {"system": "Trifolium pratense", "experiment": "Selective inhibition of germination: non-parasitic plant Trifolium pratense", "conditions": "only nojirimycin, no germination inducer, four days (FIG. 13)", "description": "as §2"}}, "data": [{"smiles": "OC[C@H]1NC[C@H](O)[C@@H](O)[C@H]1O", "note": "[deoxygalactonojirimycin]", "values": [{"measurement": "influence on germination of Orobanche minor", "setting": "Orobanche minor [1]", "value": "no influence on germination"}]}, {"smiles": "OC[C@H]1NC[C@H](O)[C@@H](O)[C@@H]1O", "note": "[deoxynojirimycin]", "values": [{"measurement": "influence on germination of Orobanche minor", "setting": "Orobanche minor [1]", "value": "no influence on germination"}]}, {"smiles": "OC[C@H]1NC(O)[C@H](O)[C@@H](O)[C@@H]1O", "note": "(some centres unmarked) [nojirimycin]", "values": [{"measurement": "inhibition of germination of Orobanche minor (parasitic plant)", "setting": "Orobanche minor [2]", "value": "effectively inhibited germination"}, {"measurement": "germination rate", "setting": "Orobanche minor [1]; concentration of 1 μM", "value": "approximately 20%"}, {"measurement": "germination rate", "setting": "Orobanche minor [1]; concentration of 10 μM", "value": "approximately 10%"}, {"measurement": "germination rate", "setting": "Orobanche minor [1]; concentration of not less than 25 μM", "value": "approximately 0%"}, {"measurement": "influence on germination of Orobanche minor", "setting": "Orobanche minor [1]", "value": "inhibited germination"}, {"measurement": "germination recovery effect of glucose versus germination inhibition effect of nojirimycin", "setting": "Orobanche minor [3]", "value": "recovered by glucose"}, {"measurement": "germination rate", "setting": "Striga gesnerioides [4]; 1 μM", "value": "approximately 24.3%"}, {"measurement": "germination rate", "setting": "Striga gesnerioides [4]; 10 μM", "value": "~7.5", "unit": "%"}, {"measurement": "germination rate", "setting": "Striga gesnerioides [4]; 50 μM", "value": "~6.2", "unit": "%"}, {"measurement": "germination rate", "setting": "Striga gesnerioides [4]; 100 μM", "value": "~0", "unit": "%"}, {"measurement": "germination rate", "setting": "Striga gesnerioides [4]; 1 mM", "value": "~0", "unit": "%"}, {"measurement": "influence on germination of Striga gesnerioides", "setting": "Striga gesnerioides [4]; applied concurrently with root extract of cowpea, observed after four days (FIG. 10)", "value": "inhibited germination"}, {"measurement": "inhibition of germination of Striga gesnerioides (parasitic plant)", "setting": "Striga gesnerioides [5]", "value": "effectively inhibited germination"}, {"measurement": "inhibition of germination of Arabidopsis thaliana (non-parasitic plant)", "setting": "Arabidopsis thaliana", "value": "did not inhibit germination"}, {"measurement": "inhibition of germination of Trifolium pratense (non-parasitic plant)", "setting": "Trifolium pratense", "value": "did not inhibit germination"}]}]}
